Laboratory results from PubChem BioAssay (NCI).
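Compound exposure: 48 hours, 5 concentrations, 96-well plates. Here, GI50 denotes the concentration required for 50% inhibition of growth. At the TGI there is no net growth.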

Experiments:
Test in all cases: DTP human tumour cell line panel, 48 h
SNB-75 CNS = test system: SNB-75 CNS
786-0 renal = test system: 786-0 renal
MALME-3M melanoma = test system: MALME-3M melanoma
A549 NSCLC = test system: A549 NSCLC
LOX IMVI melanoma = test system: LOX IMVI melanoma
NCI-H226 lung = test system: NCI-H226 lung
BT-549 breast = test system: BT-549 breast
NCI/ADR-RES ovarian = test system: NCI/ADR-RES ovarian
SK-OV-3 ovarian = test system: SK-OV-3 ovarian
SF-539 CNS = test system: SF-539 CNS
OVCAR-3 ovarian = test system: OVCAR-3 ovarian
NCI-H23 lung = test system: NCI-H23 lung
ACHN renal = test system: ACHN renal
SK-MEL-5 melanoma = test system: SK-MEL-5 melanoma
SF-295 CNS = test system: SF-295 CNS
HOP-62 NSCLC = test system: HOP-62 NSCLC
COLO 205 colon = test system: COLO 205 colon
OVCAR-8 ovarian = test system: OVCAR-8 ovarian
NCI-H522 lung = test system: NCI-H522 lung
KM12 colon = test system: KM12 colon
HCT-116 colon = test system: HCT-116 colon
TK-10 renal = test system: TK-10 renal
HCT-15 colon = test system: HCT-15 colon
DU-145 prostate = test system: DU-145 prostate
UACC-257 melanoma = test system: UACC-257 melanoma
CAKI-1 renal = test system: CAKI-1 renal
HS 578T breast = test system: HS 578T breast
MDA-MB-231 breast = test system: MDA-MB-231 breast
RXF 393 renal = test system: RXF 393 renal
MDA-N = test system: MDA-N
OVCAR-5 ovarian = test system: OVCAR-5 ovarian
HT29 colon = test system: HT29 colon
IGROV1 ovarian = test system: IGROV1 ovarian
UO-31 renal = test system: UO-31 renal
EKVX NSCLC = test system: EKVX NSCLC
SNB-19 CNS = test system: SNB-19 CNS
SF-268 CNS = test system: SF-268 CNS
HCC-2998 colon = test system: HCC-2998 colon
PC-3 prostate = test system: PC-3 prostate
M14 melanoma = test system: M14 melanoma
UACC-62 melanoma = test system: UACC-62 melanoma
MCF7 breast = test system: MCF7 breast
NCI-H460 lung = test system: NCI-H460 lung
SN12C renal = test system: SN12C renal
CCRF-CEM leukemia = test system: CCRF-CEM leukemia
OVCAR-4 ovarian = test system: OVCAR-4 ovarian
U251 CNS = test system: U251 CNS
SW-620 colon = test system: SW-620 colon
A498 renal = test system: A498 renal
MDA-MB-435 = test system: MDA-MB-435
HL-60(TB) leukemia = test system: HL-60(TB) leukemia
HOP-92 NSCLC = test system: HOP-92 NSCLC
SK-MEL-28 melanoma = test system: SK-MEL-28 melanoma
K-562 leukemia = test system: K-562 leukemia
SR leukemia = test system: SR leukemia
SK-MEL-2 melanoma = test system: SK-MEL-2 melanoma
RPMI-8226 leukemia = test system: RPMI-8226 leukemia
T-47D breast = test system: T-47D breast
MOLT-4 leukemia = test system: MOLT-4 leukemia

Cc1csc(=Nc2ccccc2)n1CCC(O)(P(=O)(O)O)P(=O)(O)O
TGI (SNB-75 CNS): > 100 µM
TGI (786-0 renal): > 100 µM
TGI (MALME-3M melanoma): > 100 µM
TGI (A549 NSCLC): > 100 µM
TGI (LOX IMVI melanoma): > 100 µM
TGI (NCI-H226 lung): > 100 µM
TGI (BT-549 breast): > 100 µM
TGI (NCI/ADR-RES ovarian): > 100 µM
TGI (SK-OV-3 ovarian): > 100 µM
TGI (SF-539 CNS): > 100 µM
TGI (OVCAR-3 ovarian): > 100 µM
TGI (NCI-H23 lung): > 100 µM
TGI (ACHN renal): > 100 µM
TGI (SK-MEL-5 melanoma): > 100 µM
TGI (SF-295 CNS): > 100 µM
TGI (HOP-62 NSCLC): > 100 µM
TGI (COLO 205 colon): > 100 µM
TGI (OVCAR-8 ovarian): > 100 µM
TGI (NCI-H522 lung): > 100 µM
TGI (KM12 colon): > 100 µM
TGI (HCT-116 colon): > 100 µM
TGI (TK-10 renal): > 100 µM
TGI (HCT-15 colon): > 100 µM
TGI (DU-145 prostate): > 100 µM
TGI (UACC-257 melanoma): > 100 µM
TGI (CAKI-1 renal): > 100 µM
TGI (HS 578T breast): > 100 µM
TGI (MDA-MB-231 breast): > 100 µM
TGI (RXF 393 renal): > 100 µM
TGI (MDA-N): > 100 µM
TGI (OVCAR-5 ovarian): > 100 µM
TGI (HT29 colon): > 100 µM
TGI (IGROV1 ovarian): > 100 µM
TGI (UO-31 renal): > 100 µM
TGI (EKVX NSCLC): > 100 µM
TGI (SNB-19 CNS): > 100 µM
TGI (SF-268 CNS): > 100 µM
TGI (HCC-2998 colon): > 100 µM
TGI (PC-3 prostate): > 100 µM
TGI (M14 melanoma): > 100 µM
TGI (UACC-62 melanoma): > 100 µM
TGI (MCF7 breast): > 100 µM
TGI (NCI-H460 lung): > 100 µM

NC1=C(c2nc(-c3ccccc3)cs2)C(c2ccco2)c2c(c3ccccc3oc2=O)O1 (stereo not drawn)
TGI (SNB-75 CNS): > 100 µM
TGI (SN12C renal): > 100 µM
TGI (786-0 renal): > 100 µM
TGI (CCRF-CEM leukemia): > 100 µM
TGI (OVCAR-4 ovarian): > 100 µM
TGI (MALME-3M melanoma): > 100 µM
TGI (U251 CNS): > 100 µM
TGI (A549 NSCLC): > 100 µM
TGI (LOX IMVI melanoma): > 100 µM
TGI (NCI-H226 lung): > 100 µM
TGI (BT-549 breast): > 100 µM
TGI (NCI/ADR-RES ovarian): > 100 µM
TGI (SW-620 colon): > 100 µM
TGI (A498 renal): > 100 µM
TGI (SK-OV-3 ovarian): > 100 µM
TGI (SF-539 CNS): > 100 µM
TGI (OVCAR-3 ovarian): > 100 µM
TGI (NCI-H23 lung): > 100 µM
TGI (ACHN renal): > 100 µM
TGI (SK-MEL-5 melanoma): > 100 µM
TGI (SF-295 CNS): > 100 µM
TGI (HOP-62 NSCLC): > 100 µM
TGI (COLO 205 colon): > 100 µM
TGI (MDA-MB-435): > 100 µM
TGI (OVCAR-8 ovarian): > 100 µM
TGI (NCI-H522 lung): > 100 µM
TGI (HCT-116 colon): > 100 µM
TGI (TK-10 renal): > 100 µM
TGI (HCT-15 colon): > 100 µM
TGI (DU-145 prostate): > 100 µM
TGI (UACC-257 melanoma): > 100 µM
TGI (HL-60(TB) leukemia): > 100 µM
TGI (CAKI-1 renal): > 100 µM
TGI (HS 578T breast): > 100 µM
TGI (MDA-MB-231 breast): > 100 µM
TGI (HOP-92 NSCLC): > 100 µM
TGI (RXF 393 renal): > 100 µM
TGI (MDA-N): > 100 µM
TGI (SK-MEL-28 melanoma): > 100 µM
TGI (OVCAR-5 ovarian): > 100 µM
TGI (HT29 colon): > 100 µM
TGI (IGROV1 ovarian): > 100 µM
TGI (UO-31 renal): > 100 µM
TGI (EKVX NSCLC): > 100 µM
TGI (SNB-19 CNS): > 100 µM
TGI (SF-268 CNS): > 100 µM
TGI (HCC-2998 colon): > 100 µM
TGI (PC-3 prostate): > 100 µM
TGI (M14 melanoma): > 100 µM
TGI (K-562 leukemia): > 100 µM
TGI (SR leukemia): > 100 µM
TGI (UACC-62 melanoma): > 100 µM
TGI (MCF7 breast): > 100 µM
TGI (SK-MEL-2 melanoma): > 100 µM
TGI (NCI-H460 lung): > 100 µM

O=c1c2ccccc2nc2n1CCc1c-2[nH]c2ccccc12
TGI (SNB-75 CNS): 40.7 µM
GI50 (CCRF-CEM leukemia): 18.9 µM
TGI (CCRF-CEM leukemia): > 100 µM
GI50 (OVCAR-4 ovarian): 18.9 µM
TGI (OVCAR-4 ovarian): 43.8 µM
TGI (RPMI-8226 leukemia): > 100 µM
TGI (MALME-3M melanoma): 73.7 µM
TGI (U251 CNS): 28.6 µM
GI50 (A549 NSCLC): 14.5 µM
TGI (A549 NSCLC): 37.4 µM
TGI (NCI/ADR-RES ovarian): 61 µM
TGI (SW-620 colon): 52.9 µM
TGI (SK-OV-3 ovarian): 37.8 µM
TGI (NCI-H23 lung): 37.4 µM
TGI (SK-MEL-5 melanoma): 28.6 µM
TGI (SF-295 CNS): 27 µM
TGI (COLO 205 colon): 37.9 µM
TGI (OVCAR-8 ovarian): 71.8 µM
TGI (T-47D breast): 55.5 µM
TGI (HCT-116 colon): 31.3 µM
TGI (TK-10 renal): 63.5 µM
TGI (DU-145 prostate): 33.5 µM
TGI (MOLT-4 leukemia): > 100 µM
TGI (HL-60(TB) leukemia): > 100 µM
TGI (CAKI-1 renal): 47.9 µM
GI50 (HS 578T breast): 22.6 µM
TGI (HS 578T breast): 50.5 µM
TGI (HOP-92 NSCLC): 31 µM
TGI (RXF 393 renal): 34.5 µM
TGI (MDA-N): 28.5 µM
TGI (SK-MEL-28 melanoma): 62.4 µM
TGI (OVCAR-5 ovarian): 31.2 µM
TGI (IGROV1 ovarian): 60.6 µM
TGI (UO-31 renal): 28.1 µM
TGI (EKVX NSCLC): 60.5 µM
TGI (SNB-19 CNS): 29.2 µM
TGI (SF-268 CNS): 75.2 µM
TGI (PC-3 prostate): 40.9 µM
TGI (M14 melanoma): 32 µM
TGI (K-562 leukemia): > 100 µM
TGI (SR leukemia): > 100 µM

CC(=O)n1c2ccc(Br)cc2c2nc3ccccc3nc21
TGI (SNB-75 CNS): > 100 µM
TGI (SN12C renal): > 100 µM
TGI (786-0 renal): > 100 µM
TGI (CCRF-CEM leukemia): > 100 µM
TGI (OVCAR-4 ovarian): > 100 µM
TGI (RPMI-8226 leukemia): > 100 µM
TGI (MALME-3M melanoma): > 100 µM
TGI (U251 CNS): > 100 µM
TGI (LOX IMVI melanoma): > 100 µM
TGI (NCI-H226 lung): > 100 µM
TGI (BT-549 breast): > 100 µM
TGI (NCI/ADR-RES ovarian): > 100 µM
TGI (SW-620 colon): > 100 µM
TGI (SF-539 CNS): > 100 µM
TGI (OVCAR-3 ovarian): > 100 µM
TGI (NCI-H23 lung): > 100 µM
TGI (ACHN renal): > 100 µM
TGI (SK-MEL-5 melanoma): > 100 µM
TGI (SF-295 CNS): > 100 µM
TGI (HOP-62 NSCLC): > 100 µM
TGI (COLO 205 colon): > 100 µM
TGI (MDA-MB-435): > 100 µM
TGI (OVCAR-8 ovarian): > 100 µM
TGI (NCI-H522 lung): > 100 µM
TGI (KM12 colon): > 100 µM
TGI (HCT-116 colon): > 100 µM
TGI (TK-10 renal): > 100 µM
TGI (HCT-15 colon): > 100 µM
TGI (DU-145 prostate): > 100 µM
TGI (MOLT-4 leukemia): > 100 µM
TGI (UACC-257 melanoma): > 100 µM
TGI (HL-60(TB) leukemia): > 100 µM
TGI (CAKI-1 renal): > 100 µM
TGI (MDA-MB-231 breast): > 100 µM
TGI (HOP-92 NSCLC): > 100 µM
TGI (RXF 393 renal): > 100 µM
TGI (MDA-N): > 100 µM
TGI (SK-MEL-28 melanoma): > 100 µM
TGI (OVCAR-5 ovarian): > 100 µM
TGI (HT29 colon): > 100 µM
TGI (IGROV1 ovarian): > 100 µM
TGI (UO-31 renal): > 100 µM
TGI (EKVX NSCLC): > 100 µM
TGI (SNB-19 CNS): > 100 µM
TGI (SF-268 CNS): > 100 µM
TGI (HCC-2998 colon): > 100 µM
TGI (PC-3 prostate): > 100 µM
TGI (M14 melanoma): > 100 µM
TGI (K-562 leukemia): > 100 µM
TGI (SR leukemia): > 100 µM
TGI (UACC-62 melanoma): > 100 µM
TGI (MCF7 breast): > 100 µM
TGI (SK-MEL-2 melanoma): > 100 µM
TGI (NCI-H460 lung): > 100 µM
